This assay has as its target T1, human LPA1 (Homo sapiens, UniProt Q92633).
T1 construct: expressed in transfected cells; host or cells: CHO-K1
In words: In vitro LPA1 functional antagonist assay (calcium mobilization, FLIPR). The class given is cell-based. To be noted: CHO-K1 cells overexpressing human LPA1; Oleoyl LPA challenge; calcium mobilization on FLIPR Tetra. As to the method:
In Vitro LPA1 Functional Antagonist Assay
CHO-K1 cells overexpressing human LPA1 were seeded in a total volume of 20 μL into black-walled, clear-bottom, Poly-D-lysine coated 384-well microplates and incubated at 37° C. for the appropriate time prior to testing. Assays were performed in 1× Dye Loading Buffer consisting of 1× Dye, 1× Additive A and 2.5 mM Probenecid in HBSS/20 mM Hepes. Probenicid was prepared fresh. Cells were loaded with dye prior to testing. Media was aspirated from cells and replaced with […] Dye Loading Buffer. Cells were incubated for 30-60 minutes at 37° C. After dye loading, cells were removed from the incubator and 10 μL 3× test compound was added. Cells were incubated for 30 minutes at room temperature in the dark to equilibrate plate temperature followed by Oleoyl LPA challenge at the 0.018 M. Compound antagonist activity was measured on a FLIPR Tetra (MDS). Calcium mobilization was monitored for 2 minutes and 10 μL Oleoyl LPA in HBSS/20 mM Hepes was added to the cells 5 seconds into the assay. Compound activity was analyzed using CBIS data analysis suite (ChemInnovation, CA). Percentage inhibition is calculated using the following formula:
% Inhibition=100%×(1−(mean RFU of test sample−mean RFU of vehicle control)/(mean RFU of LPA control−mean RFU of vehicle control)).
T1 sequence (Q92633 whole entry): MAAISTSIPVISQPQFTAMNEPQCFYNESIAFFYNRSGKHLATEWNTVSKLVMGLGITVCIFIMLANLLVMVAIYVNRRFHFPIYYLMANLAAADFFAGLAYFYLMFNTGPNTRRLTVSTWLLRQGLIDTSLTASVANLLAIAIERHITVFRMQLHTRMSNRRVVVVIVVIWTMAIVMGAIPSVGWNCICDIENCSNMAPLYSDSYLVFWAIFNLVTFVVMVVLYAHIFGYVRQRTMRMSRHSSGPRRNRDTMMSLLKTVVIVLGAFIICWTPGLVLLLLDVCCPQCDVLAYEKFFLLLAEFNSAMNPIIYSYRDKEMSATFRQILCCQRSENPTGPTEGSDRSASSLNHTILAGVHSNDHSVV
Usually IC50 stands for the concentration at which inhibition is half-maximal. As to `COc1cc([C@@H](O)C(Cn2cc3cccc(C(=O)O)c3n2)OCCc2ccccc2)cc(OC)c1C` (stereo in doubt) [Compound 105a, 2-((2R,3R)-3-(3,5-dimethoxy-4-methylphenyl)-3-hydroxy-2-phenethoxypropyl)-2H-indazole-7-carboxylic acid], the IC50 came out at 3.35 nM.

On to `CC#CCCO[C@@H](Cn1cc(CC(=O)O)c(C(=O)OC)c1)[C@H](O)c1cc(OC)c(C)c(OC)c1` [Compound 101a, 2-(1-((2S,3R)-3-(3,5-dimethoxy-4-methylphenyl)-3-hydroxy-2-(pent-3-yn-1-yloxy)propyl)-4-(methoxycarbonyl)-1H-pyrrol-3-yl)acetic acid], for which the half-maximal inhibitory concentration (IC50) amounted to 213 nM.

On to `COC(=O)c1cn(C[C@H](OC2CCCC2)[C@H](O)c2cc(OC)c(C)c(OC)c2)cc1CC(=O)O` [Compound 102a, 2-(1-((2S,3R)-2-(cyclopentyloxy)-3-(3,5-dimethoxy-4-methylphenyl)-3-hydroxypropyl)-4-(methoxycarbonyl)-1H-pyrrol-3-yl)acetic acid], for which the IC50 was found to be 14.5 nM.

For the compound `COC(=O)c1cn(C[C@H](OC2Cc3ccccc3C2)[C@H](O)c2cc(OC)c(C)c(OC)c2)cc1CC(=O)O` [Compound 103a, 2-(1-((2S,3R)-2-((2,3-dihydro-1H-inden-2-yl)oxy)-3-(3,5-dimethoxy-4-methylphenyl)-3-hydroxypropyl)-4-(methoxycarbonyl)-1H-pyrrol-3-yl)acetic acid], the IC50 is 4.74 nM.

With `COC(=O)c1cn(C[C@H](OCCc2ccccc2)[C@H](O)c2cc(OC)c(C)c(OC)c2)cc1CC(=O)O` [Compound 104a, 2-(1-((2S,3R)-3-(3,5-dimethoxy-4-methylphenyl)-3-hydroxy-2-phenethoxypropyl)-4-(methoxycarbonyl)-1H-pyrrol-3-yl)acetic acid], the half-inhibitory concentration (IC50) amounted to 5.24 nM.

Regarding `COc1cc([C@H](O)[C@H](Cn2cc3cccc(C(=O)O)c3n2)OCCc2ccccc2)cc(OC)c1C` [Compound 105b, 2-((2S,3S)-3-(3,5-dimethoxy-4-methylphenyl)-3-hydroxy-2-phenethoxypropyl)-2H-indazole-7-carboxylic acid], the IC50 was 49 nM.

`COc1cc([C@@H](O)[C@H](Cc2ccc(CC(=O)O)cn2)OCCc2ccccc2)cc(OC)c1C` [Compound 106a, 2-(6-((2S,3R)-3-(3,5-dimethoxy-4-methylphenyl)-3-hydroxy-2-phenethoxypropyl)pyridin-3-yl)acetic acid]: the IC50 amounted to 411 nM.

`COc1cc(C(O)C(Cn2ncc3cccc(C(=O)O)c32)OCCc2ccccc2)cc(OC)c1C` (centres unmarked) [Compound 107, 1-(3-(3,5-dimethoxy-4-methylphenyl)-3-hydroxy-2-phenethoxypropyl)-1H-indazole-7-carboxylic acid]: the half-maximal inhibitory concentration (IC50) is more than 10000 nM.

As to `COc1cc([C@@H](O)[C@H](Cn2cc3cccc(C(=O)O)c3n2)OC2CCCC2)cc(OC)c1C` [Compound 108a, 2-((2S,3R)-2-(cyclopentyloxy)-3-(3,5-dimethoxy-4-methylphenyl)-3-hydroxypropyl)-2H-indazole-7-carboxylic acid], the half-maximal inhibitory concentration (IC50) came to 3.05 nM.

As to `COc1cc([C@@H](O)[C@H](Cc2nc3cc(C(=O)O)ccc3[nH]2)OC2CCCC2)cc(OC)c1C` [Compound 109a, 2-((2S,3R)-2-(cyclopentyloxy)-3-(3,5-dimethoxy-4-methylphenyl)-3-hydroxypropyl)-1H-benzo[d]imidazole-5-carboxylic acid], the 50% inhibitory concentration (IC50) is more than 10000 nM.

For the compound `COc1cc([C@@H](O)[C@H](Cc2ccc(CC(=O)O)c(OC)n2)OC2CCCC2)cc(OC)c1C` [Compound 110a, 2-(6-((2S,3R)-2-(cyclopentyloxy)-3-(3,5-dimethoxy-4-methylphenyl)-3-hydroxypropyl)-2-methoxypyridin-3-yl)acetic acid], the half-inhibitory concentration (IC50) stood at 1650 nM.

As to `COc1cc([C@@H](O)[C@H](Cc2nc3cc(CC(=O)O)ccc3[nH]2)OC2CCCC2)cc(OC)c1C` [Compound 111a, 2-(2-((2S,3R)-2-(cyclopentyloxy)-3-(3,5-dimethoxy-4-methylphenyl)-3-hydroxypropyl)-1H-benzo[d]imidazol-5-yl)acetic acid], the half-inhibitory concentration (IC50) was more than 10000 nM.

`COc1cc([C@@H](O)[C@H](Cc2nc(CC(=O)O)cs2)OC2CCCC2)cc(OC)c1C` [Compound 112a, 2-(2-((2S,3R)-2-(cyclopentyloxy)-3-(3,5-dimethoxy-4-methylphenyl)-3-hydroxypropyl)thiazol-4-yl)acetic acid]: the concentration for half-maximal inhibition (IC50) stood at 56.1 nM.

Regarding `COc1cc([C@@H](O)[C@H](Cn2cc3cccc(C(=O)O)c3n2)OC2Cc3ccccc3C2)cc(OC)c1C` [Compound 113a, 2-((2S, 3R)-2-((2,3-dihydro-1H-inden-2-yl)oxy)-3-(3,5-dimethoxy-4-methylphenyl)-3-hydroxypropyl)-2H-indazole-7-carboxylic acid], the IC50 turned out to be 3.69 nM.

As to `COc1cc([C@@H](O)[C@H](Cc2nc3cc(C(=O)O)ccc3[nH]2)OC2Cc3ccccc3C2)cc(OC)c1C` [Compound 114a, 2-((2S, 3R)-2-((2,3-dihydro-1H-inden-2-yl)oxy)-3-(3,5-dimethoxy-4-methylphenyl)-3-hydroxypropyl)-1H-benzo[d]imidazole-5-carboxylic acid], the IC50 turned out to be 125 nM.

Take `COc1cc([C@@H](O)[C@H](Cc2nc3cc(CC(=O)O)ccc3[nH]2)OC2Cc3ccccc3C2)cc(OC)c1C` [Compound 115a, 2-[2-[(2S,3R)-3-(3,5-dimethoxy-4-methyl-phenyl)-3-hydroxy-2-indan-2-yloxy-propyl]-1H-benzimidazol-5-yl]acetic acid]: the half-maximal inhibitory concentration (IC50) worked out at 30.8 nM.

For `COc1cc([C@@H](O)[C@H](Cc2ccn(CC(=O)O)n2)OC2CCCC2)cc(OC)c1C` [Compound 116a], the IC50 was determined as 1470 nM.

Regarding `COC(=O)c1cn(C[C@H](OCC2CCC2)[C@H](O)c2cc(OC)c(C)c(OC)c2)cc1CC(=O)O` [Compound 117a], the IC50 was 61.9 nM.

`COc1cc([C@@H](O)[C@H](Cn2cc3cccc(C(=O)O)c3n2)OCC2CCC2)cc(OC)c1C` [Compound 118a, 2-((2S,3R)-2-(cyclobutylmethoxy)-3-(3,5-dimethoxy-4-methylphenyl)-3-hydroxypropyl)-2H-indazole-7-carboxylic acid]: the IC50 was 26.6 nM.

Turning to `COc1cc([C@@H](O)[C@H](Cc2nc3cc(C(=O)O)ccc3n2C)OCC2CCC2)cc(OC)c1C` [Compound 119a, 2-[(2S,3R)-2-(cyclobutylmethoxy)-3-(3,5-dimethoxy-4-methyl-phenyl)-3-hydroxy-propyl]-1-methyl-benzimidazole-5-carboxylic acid], the IC50 was more than 10000 nM.

For `COc1cc([C@@H](O)[C@H](Cc2nc3cc(CC(=O)O)ccc3n2C)OCC2CCC2)cc(OC)c1C` [Compound 120a, 2-[2-[(2S,3R)-2-(cyclobutylmethoxy)-3-(3,5-dimethoxy-4-methyl-phenyl)-3-hydroxy-propyl]-1-methyl-benzimidazol-5-yl]acetic acid], the 50% inhibitory concentration (IC50) was more than 10000 nM.

For the compound `COc1cc([C@@H](O)[C@H](Cn2cc3cccc(C(=O)O)c3n2)OC2CCCC2)ccc1C(F)F` [Compound 121a], the half-maximal inhibitory concentration (IC50) came to 11.2 nM.

As for `COc1cc([C@@H](O)[C@H](Cc2nc(CC(=O)O)cs2)OCC2CCC2)cc(OC)c1C` [Compound 122a], the half-maximal inhibitory concentration (IC50) was 1450 nM.

As to `O=C(O)c1cccc2cn(C[C@H](OC3CCCC3)[C@H](O)c3ccc(C(F)(F)F)cc3)nc12` [Compound 124a], the IC50 came out at 5700 nM.

For `COc1cc([C@@H](O)[C@H](Cn2cc3cccc(C(=O)O)c3n2)OC2CCCC2)ccc1C1CC1` [Compound 125a], the concentration for half-maximal inhibition (IC50) came out at 80.7 nM.

Consider `COc1cc([C@@H](O)[C@H](Cn2cc3cccc(C(=O)O)c3n2)OC2CCCC2)ccc1Cl` [Compound 126a, 2-((2S,3R)-3-(4-chloro-3-methoxyphenyl)-2-(cyclopentyloxy)-3-hydroxypropyl)-2H-indazole-7-carboxylic acid], for which the IC50 amounted to 64.8 nM.

For `Cc1ccc([C@@H](O)[C@H](Cn2cc3cccc(C(=O)O)c3n2)OC2CCCC2)cn1` [Compound 127a], the IC50 was more than 10000 nM.

As to `O=C(O)c1cccc2cn(C[C@H](OC3CCCC3)[C@H](O)c3ccc(C(F)F)cc3)nc12` [Compound 128a], the concentration for half-maximal inhibition (IC50) came to 207 nM.

Turning to `COc1cc([C@@H](O)[C@H](Cc2nc(CC(=O)O)cs2)OC2Cc3ccccc3C2)cc(OC)c1C` [Compound 129a, 2-(2-((2S,3R)-2-((2,3-dihydro-1H-inden-2-yl)oxy)-3-(3,5-dimethoxy-4-methylphenyl)-3-hydroxypropyl)thiazol-4-yl)acetic acid], the concentration for half-maximal inhibition (IC50) is 3.38 nM.

For the compound `COc1cc([C@@H](O)[C@H](Cc2ccc(CC(=O)O)c(OC)n2)OCCc2ccccc2)cc(OC)c1C` [Compound 130a, 2-(6-((2S,3R)-3-(3,5-dimethoxy-4-methylphenyl)-3-hydroxy-2-phenethoxypropyl)-2-methoxypyridin-3-yl)acetic acid], the concentration for half-maximal inhibition (IC50) amounted to 1190 nM.

Consider `COc1cc([C@@H](O)[C@H](Cc2nc3cc(C(=O)O)ccc3[nH]2)OCC2CCC2)cc(OC)c1C` [Compound 131a, 2-((2S,3R)-2-(cyclobutylmethoxy)-3-(3,5-dimethoxy-4-methylphenyl)-3-hydroxypropyl)-1H-benzo[d]imidazole-5-carboxylic acid], for which the half-maximal inhibitory concentration (IC50) was more than 10000 nM.

With `COC(=O)c1cn(C[C@H](OCCc2ccccc2)[C@@H](O)c2cc(OC)c(C)c(OC)c2)cc1CC(=O)O` [Compound 132], the 50% inhibitory concentration (IC50) came to 1540 nM.

(Values after patent publication US20240018102A1, “COMPOUNDS AND COMPOSITIONS FOR TREATING CONDITIONS ASSOCIATED WITH LPA RECEPTOR ACTIVITY” (Lhotse Bio, Inc., priority 2020, published 2024).)
